US20030091533A1, “Regulation of mononuclear phagocyte stimulation” (priority 2001, published 2003)

What was measured:
ERK½ = ERK½ MAP kinase phosphorylation immunoblot in PBM; type: cell-based, human; settings: pretreatment before LPS 1 μg/ml; IL-9 20 ng/ml 24 hour; PD98059 1 hour
Experimental: PBM, isolated as described infra, were treated with 100 !M PD98059 (or with the same volume of DMSO as control) 1 hour before preincubation for 24 hour with medium or IL-9 (20 ng/ml). For the phosphoERK immunoblot assay (A), PBM were then stimulated by LPS (1 μg/ml) for the indicated periods of time (5 min to 20 hours) as compared to unstimulated cells (med), and processed for the detection of phosphorylated and total ERK½ as described in infra. For the oxidative burst (B), PBM were stimulated by LPS (1 μg/ml) for 20 hour and their oxidative capacity was evaluated through DCFH oxidation The results are presented in FIG. 7.
PBM were preincubated for 24 hour with medium alone (med) or IL-9, IL-4 or TGF-β1 (20 ng/ml), and stimulated by LPS (1 μg/ml) for the indicated periods of time (30 to 240 min). […]
PBM (1×10^6) were preincubated for 24 hour with medium alone or with cytokines (IL-9, IL-4 or TGF-β1 at 20 ng/ml) and stimulated from 5 min to 20 hour by 1 μg/ml LPS. […] Cell extracts (10 μg, as determined by the bicinchoninic acid-based assay) were subjected to SDS-12%PAGE, and electrotransferred onto a nitrocellulose membrane (Amersham) immunoblotted to detect and compare phosphorylated (threonine^202/tyrosine^204 residues) and total ERK½, using specific antibodies and enhanced chemiluminescence (New England Biolabs). […]

LPS-stimulated PBM [1] = experiment: Intracellular oxidative burst, DCFH oxidation assay, PBM; type: cell-based, human
Experimental: Intracellular oxidative capacity was assessed essentially as described by Bass et al., J. Immunol., 130:1910-1917 (1983) (incorporated herein by reference) as described infra.
Cells (0.2×10^6) were preincubated for 24 hour with IL-9 or IL-4 (20 ng/ml) in the presence of IFN-γ (200 U/ml) before stimulation for 20 hour with LPS (1 μg/ml). The intracellular oxidative capacity was measured through the DCFH oxidation assay as describe herein. FIG. 3 depicts the effect of IFN-γ on the inhibition mediated by IL-9 and IL-4 on the oxidative burst in LPS-stimulated PBM (A) and AM (B).
Table 1. Specific blockade of the IL-9 inhibitory effect on oxidative burst in LPS-15 stimulated PBM and AM by anti-hIL-9R mAb. Cells (0.2×10^6) were preincubated with neutralizing mAb against hIL-9R (AH9R7, 10 μg/ml), or with control mIgG2b (10 μg/ml), 1 hour before incubation with IL-9 (20 ng/ml) for 24 hour without removing mAb, and stimulated by LPS (1 μg/ml) for 20 h. Intracellular oxidative capacity was evaluated by the DCFH oxidation assay. Data are means±SEM obtained from three experiments, triplicate conditions being performed in each experiment. *P<0.001 compared with cells preincubated with IL-9 (with or without control mIgG2b).
Cells (0.2×10^6) were preincubated with neutralizing mAb, either against TGF-β1 (30 μg/ml) or against IL-10Rβ (30 μg/ml) or with control mIgG1 (30 μg/ml), 2 hour before incubation with IL-9 (20 ng/ml) for 24 hour without removing the mAb, and stimulated with LPS (1 μg/ml) for 20 h. Intracellular oxidative capacity was evaluated by the DCFH oxidation assay.
Intracellular oxidative capacity was assessed as described by Bass et al., (Bass et al., J. Immunol. 130:1910-1917 (1983)). Briefly, the PBM and AM samples were distributed in 96-well plates with flat bottoms (Falcon) to provide 0.2×10^6cells/well. The cells were preincubated for 24 hour at 37° C., 5% CO2 with cytokines (200 u/ml for IFN-y, 20 ng/ml for IL-9 and 20 ng/ml; for IL-4) in cRPMI before being stimulated for 20 hours with LPS (1 μg/ml) without removing the cytokines. At the end of incubation with cytokines and/or LPS, cells were loaded for 15 min with 15 μM DCFH-DA in cRPMI which, after passive penetration into cells, is hydrolyzed into nonfluorescent polar DCFH and trapped inside the cells. DCFH is then oxidized into highly fluorescent DCF according to the intracellular amount of hydrogen peroxide (H2O2) produced by the respiratory burst. After three washings with phosphate-buffered saline (PBS, pH 7.4), cells were lysed in 0.1% v/v Triton X100 (Sigma) in PBS, and fluorescence was quantified in a computerized microplate spectrofluorimeter (Packard Instruments, Downers Grove, Ill., USA) at 485 nm excitation/530 nm emission wavelengths. DCF concentrations were deduced from a standard curve of known concentrations of fluorescent DCF (ranging from 0.08 to 10 μM in lysis buffer) Results were corrected for total protein concentration determined in cell lysates by the bicinchoninic acid-based method (Pierce, Rockford, Ill., USA), and were expressed as nmoles DCF/mg cell protein.

PMA-stimulated PBM = experiment: Extracellular O2- release, SOD-inhibitable reduction of ferricytochrome c; type: cell-based, human; settings: PMA as stimulus, preliminary experiments
Experimental: Extracellular release of O2-derived radicals was evaluated by the SOD-inhibitable reduction of ferricytochrome c, as previously described (Pick, Methods in Enzymology, 132:407-421 (1986)) as described infra.
Extracellular release of O2-derived radicals was evaluated by the SOD-inhibitable reduction of ferricytochrome c, as previously described (Pick, Methods in Enzymology, 132:407-421 (1986)). Briefly, after incubation with IL-9 and IL-4 (20 ng/ml) for 1 hour, 4 hour 24 hour and 96 hour, cells were washed three times in Hank's balanced salt solution without phenol red (HBSS) to remove the phenol red-containing medium and incubated at 37° C. with HBSS containing 160 μM ferricytochrome c (plus 300 IU/ml SOD as control for each condition), and concomittantly with 100 ng/ml PMA when indicated. Optical density (OD) at 550 nm was then recorded in a plate spectrometer (Titertek Multiscan Plus MKII, Labsystems, Finland) after 60 min. The released amount of superoxide anion (O2^−) was deduced from the absorbance values at 550 nm (after subtraction of control values with SOD) using the cytochrome c extinction coefficient of 21×10^3 M^−1 cm^−1 (See Massey, Biochim Biophys Acta, 34: 255(1959)). Results were expressed as nmoles O2^− per 10^6 cells per hour (FIG. 1).

LPS-stimulated PBM [2] = experiment: Intracellular oxidative burst, DCFH oxidation assay, PBM; type: cell-based, human; settings: PMA as stimulus, preliminary experiments
surface of PBM and AM = experiment: IL-9 binding assay with hIL-9-mIgG3 chimeric molecule by FACS; design: species or system human; settings: revealed by GAM3-FITC, compared with control
Experimental: To assess the IL-9 binding by PBM and AM, cells (0.2×10^6) were incubated with hIL-9-nIlgG3 chimeric protein and binding was assayed with GAM3-FITC. FIG. 4 is representative of five and three experiments for respectively IL-9R expression and IL-9 binding.
Binding of IL-9 to the surface of PBM and AM was assessed by incubating these cells (0.2×10^6) at 4° C. for 1 hour with hIL-9-mIgG3 chimeric molecule (10% COS cell supernatant). […] Cells incubated with mIgG3 before GAM3-FITC served as the negative control. FACS analysis of the cell-associated fluorescence was then performed as for the assessment of IL-9R expression.
Binding of IL-9 to the surface of PBM and AM was assessed by incubating these cells (0.2×10^6) at 4° C. for 1 hour with hIL-9-mIgG3 chimeric molecule (10%, v/v, COS cell supernatant). […] Cells incubated with mIgG3 before GAM3-FITC or only with GAM3-FITC served as negative controls. FACS analysis of the cell-associated fluorescence was then performed as for the assessment of IL-9R expression.

COc1cccc(-c2cc(=O)c3ccccc3o2)c1N [PD98059, reference compound]
LPS-induced ERK½ phosphorylation in PBM (ERK½): prevented | effect on LPS-stimulated ROI production (oxidative burst) in monocytes (LPS-stimulated PBM [1]; PD98059 1 hour before preincubation, LPS 20 hour, DCFH oxidation): completely suppressed

CCCCCCCCCCCCCC(=O)O[C@@H]1[C@@H](C)[C@@]2(O)[C@@H](C=C(CO)C[C@]3(O)C(=O)C(C)=C[C@@H]23)[C@@H]2C(C)(C)[C@]12OC(C)=O [PMA, phorbol myristate acetate, reference compound]
cytochrome c reduction by PBM (PMA-stimulated PBM): strongly stimulated | DCFH oxidation by PBM (LPS-stimulated PBM [2]): only a minor effect

IL-9-mIgG3: human IL-9 fused to hinge, CH2 and CH3 domains of murine IgG3 heavy chain, COS cell supernatant
binding of IL-9 on the surface of AM (surface of PBM and AM): significant binding | binding of IL-9 on the surface of PBM (surface of PBM and AM): significant binding

TGF-β1: monocyte/macrophage deactivating factor, 20 ng/ml
Oxidative burst (nmoles DCF/mg protein) (LPS-stimulated PBM [1]; Table 3, PBM, mAb 30 μg/ml 2 hour before IL-9 20 ng/ml 24 hour, LPS 1 μg/ml 20 h, means±SD, Medium 10.3 ± 0.2): 10.2 ± 0.5 nmoles DCF/mg protein | LPS-stimulated oxidative burst in PBM (LPS-stimulated PBM [1]; preincubation 24 hour with cytokine 20 ng/ml, then LPS 1 μg/ml 20 hour, without IFN-γ): 10.2±0.5 nmoles DCF/mg protein
